# From patent US12653799B2, “Compositions and methods for treating Alzheimer's disease” (ELEANORE BENNETT CHARITABLE TRUST #2, priority 2021, dated 2026)
# How the values were obtained:
# cells = conditions: WST-1
# Method: (§2) SH-SY5Y cells were washed twice in warm Dulbecco's phosphate-buffered saline (DPBS) and incubated in 1 ml DMEM containing 0.5 mg (3-[4,5-dimethylthiazol-2-yl]-2,5-diphenyltetrazolium bromide) (MTT or WST; Molecular Probes, Eugene, OR) for 2-3 h at 37° C. and 5% CO2. The medium was aspirated and the cells were washed twice with pre-warmed DPBS. The formazan salts were dissolved in 1 ml pure ethanol before use. Cells were homogenized by repetitive pipetting and centrifuged for 5 min at 4500 rpm, and the supernatant collected. Absorbance was read against an ethanol blank at 590 nm.
# [1] = tested on: Akt Ser473 phosphorylation in rat primary cortical neurons; test: Non-amyloid insulin resistance model (palmitate/ceramide) in primary cortical neurons; format: cell-based; conditions: palmitate 300 μM; PS48 100 nM, 24 hrs; insulin 20 nM
# Method: FIG. 1B. Non-amyloid-based insulin resistance model. Partial restoration of insulin-induced Akt activation in rat primary cortical neurons exposed to the fatty acid neurotoxin palmitate (300 μM). […] . The same result was obtained in ceramide-treated (50 μM) primary neurons (not shown); *p<0.05). Representative western blot above, n=3 experiments.
# SH-SY5Y were left undifferentiated.
# Akt-1 = biological target: T1, Akt-1 (Homo sapiens, UniProt P31749); test: Fluorescence polarization, FAM-Aβ42 binding to Akt-1 in solution; conditions: PS48 10, 20, and 100 μM; results not shown
# T1 construct: purchased Amsbio
# C2C12 myotubes = test: Cell viability (cytoprotection) in C2C12 myotubes
# Method: Cell viability as measured by MTT assay.
# Mouse C2C12 cells (ATCC) were grown in Dulbecco's modified Eagle medium (DMEM), 20% fetal bovine serum (FBS) (Invitrogen), and maintained for passage below 60% confluence. Cultures at or above 90% confluence were then differentiated in DMEM, 2% adult horse serum (DM) for 3 days before use.
# C57BL/6 mice [2] = test: Safety of PS48 by oral gavage for 14 days; format: in vivo, mouse; conditions: oral gavage 1 or 50 mg/kg per day
# Method: (§1) Finally, a series of in vivo experiments was performed to assess safety of treatment with PS48. […] Similarly, when PS48 was given by oral gavage over 2 weeks, there were no signs of toxicity by gross observation, organ specific necropsy, or weight.
# Adult C57BL/6 mice (n=6 per group) were administered PS48 for 14 days. A low dose group received 1 mg/kg per day, while a high dose group received 50 mg/kg per day. A negative control group received corn oil. […] Body and organ specific weights were unaffected at necropsy. Fasting serum glucose at trial end was unchanged (˜150 mg/dl).
# C57BL/6 mice [3] = test: Safety of intravenous PS48 over 2 weeks; format: in vivo, mouse
# Method: as §1
# For intravenous PS48, adult male C57BL/6 mice (Charles River, n=6 per group) were fed ad libitum and dosed with PS48 or vehicle in an escalating schedule from 3-20 mg/kg IV daily; 3-10 mg/kg days 1-6, and 20 mg/kg days 7-13. Tail vein blood sugars were obtained 30, 60, and 120 minutes after every third dose.
# Liver transaminases ALT and AST, as well as muscle creatine kinase (CK), were also measured to assess possible liver toxicity and possible general tissue toxicity, respectively. A change in ALT, albeit statistically significant, was very small.
# APP/PS-1 transgenic mice = test: Morris water maze in APP/PS-1 transgenic mice, PS48 via diet; format: in vivo, mouse; conditions: for time spent over the platform area, acquisition probe: TG
# Method: Next, a series of experiments was performed using a Morris water maze. WT mice fed standard diet (SD) reached the hidden platform in a shorter time compared to TG-SD mice. […] The PS48 effect was more pronounced within the standard diet condition. *p<0.05, **p<0.01, ANOVA; ^p<0.05, t-test. WT mice fed standard diet (SD) reached the hidden platform zone in a shorter distance compared to TG-SD mice. […] The PS48 effect was more pronounced within the standard diet condition. Memory acquisition for the location of the escape platform location was tested in 12-month-old APP/PS1 transgenic and littermate mice. The removed escape platform was located in the northeast quadrant of the tank. […] The 10 cm platform is indicated in the figure by the shaded circle in the upper right quadrant. The following metrics were quantified: (1) time spent swimming over the target area, (2) latency to attain the target area, (3) path length to platform, and (4) number of crossings over the area. […] Transgenic animals fed high fat diet (HFD) performed less well than those on standard diet. […] Lower latency values indicate better recall for the target location. […] Animals were retrained with the platform in the SE quadrant and probe phase conducted as before. FIGS. 13E-13H show path length taken, in cm, to first reach hidden platform. […] Similar probe results were obtained in the subsequent reversal trial. […] (±1 SEM, n=16 data points per group, *p<0.05, **p<0.01, ++p<0.001). […] The data has similar import to time spent over platform area above.
# transgenic mice = test: Contextual and cued fear conditioning; format: in vivo, mouse; conditions: 16-month-old Tg mice; no significant changes
# Method: Next, a series of experiments was performed to assess contextual and cued fear conditioning. 16-month-old mice WT, TG w/vehicle, and TG w/PS48 were first habituated to establish activity levels (300 sec), then presented 3 shock-tone pairings, followed by probes of contextual and cued fear memory. Prior to conditioning to the tone and foot shock, mice in all groups experienced very low levels of freezing (Baseline Freezing Day 1) (FIG. 14A) and the expected freezing to the shock (FIG. 14B).
# After the conditioning procedure, when mice were placed back in the same context but without tone or shock (Day 2), freezing was measured over 8 minutes, the last 4 minutes were quantified.
# On Day 3 the context was changed for 2 minutes (12 bins) and mice were exposed to a continuous tone (cue) used during conditioning for 8 minutes. […] Freezing % was quantified as the number of 10-sec epochs in which there was no beam break over the total number of epochs in the 4-minute period (24). […] Sec FIG. 14D.
# [4] = tested on: Akt Ser473 and mTOR Ser2448 phosphorylation in rat primary cortical neurons; test: Over-activation test in insulin-stimulated primary cortical neurons; conditions: PS48 0.01 to 100 μM for 2 hrs or 24 hrs; 20 nM insulin
# Description: Western blots shown above and corresponding quantified results shown below. n=2.
# SH-SY5Y cells = test: Cell viability, MTT assay, Aβ42-expressing SH-SY5Y cells
# Method: FIG. 2A. Cell viability as measured by MTT assay.
# as §2
# T1 sequence (P31749 whole entry): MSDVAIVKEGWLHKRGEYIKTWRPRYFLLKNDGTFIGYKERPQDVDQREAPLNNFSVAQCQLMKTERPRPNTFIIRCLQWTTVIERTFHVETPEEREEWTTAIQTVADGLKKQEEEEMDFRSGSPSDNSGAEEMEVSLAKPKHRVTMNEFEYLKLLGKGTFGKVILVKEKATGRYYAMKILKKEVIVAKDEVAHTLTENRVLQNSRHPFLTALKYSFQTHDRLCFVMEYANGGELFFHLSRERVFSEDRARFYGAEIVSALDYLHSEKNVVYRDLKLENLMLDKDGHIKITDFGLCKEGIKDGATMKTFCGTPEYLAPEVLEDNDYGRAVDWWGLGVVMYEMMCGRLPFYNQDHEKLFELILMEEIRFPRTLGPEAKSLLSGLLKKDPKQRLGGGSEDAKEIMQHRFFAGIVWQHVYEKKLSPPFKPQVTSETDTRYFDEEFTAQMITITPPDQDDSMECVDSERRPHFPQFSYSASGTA
smiles,measurement,setting,value
"O=C(O)/C=C(/CCc1ccc(Cl)cc1)c1ccccc1 [PS48, (Z)-5-(4-chlorophenyl)-3-phenylpent-2-enoic acid]",LD50,cells,250 µM
same,inhibition of Akt Ser473 phosphorylation by palmitate,[1],partly reversed inhibition of Akt Ser473 phosphorylation by palmitate
same,effect of PS48 additions on polarization signal,Akt-1,did not affect either polarization signal
same,cytoprotection,C2C12 myotubes,same cytoprotection
same,behavioral changes,C57BL/6 mice [2],No overt behavioral changes
same,body and organ specific weights at necropsy,C57BL/6 mice [2],unaffected
same,tolerability,C57BL/6 mice [2],well tolerated
same,fasting serum glucose at trial end,C57BL/6 mice [2]; unchanged,~150 mg/dL
same,behavioral changes,"C57BL/6 mice [3]; 3-20 mg/kg IV daily, 2-week trial",No behavioral changes
same,change in muscle creatine kinase (CK),C57BL/6 mice [3]; IV daily for 14 days,no significant change
same,change in ALT,"C57BL/6 mice [3]; IV daily for 14 days, statistically significant",very small
same,mean body weight or mean blood sugars,"C57BL/6 mice [3]; IV, 3-20 mg/kg daily",no significant change
same,gross necropsy,"C57BL/6 mice [3]; IV, after 14 days",no abnormalities
same,"latency to reach the hidden platform, place learning and reversal tasks","APP/PS-1 transgenic mice; PS48 orally through diet, SD and HFD, more pronounced on standard diet",tended to reduce latency
same,"time spent over the platform area, acquisition probe","APP/PS-1 transgenic mice; HFD supplemented with PS48, p<0.01 vs Tg HFD w/V",most significant improvement
same,"time spent over the platform area, acquisition probe","APP/PS-1 transgenic mice; standard diet with PS48, p<0.10 vs vehicle fed",improved in this measure
same,"path length, acquisition and reversal data combined",APP/PS-1 transgenic mice; Tg HFD group,significantly benefited
same,"latency to platform, acquisition probe",APP/PS-1 transgenic mice; Tg mice on standard or high fat diet vs vehicle controls,Results favored
same,"path length to first reach hidden platform, probe",APP/PS-1 transgenic mice; Tg on standard or HFD diet,trended improvements in the direction of WT
same,crossing numbers over removed platform location,"APP/PS-1 transgenic mice; both probe trials combined, p<0.05 vs vehicle",performed significantly better than vehicle
same,distance to zone to reach the hidden platform,"APP/PS-1 transgenic mice; dietary PS48, SD and HFD, more pronounced on standard diet",tended to reduce distance to zone
same,"cue fear conditioning, freezing",transgenic mice,a trend in cue conditioning paradigm favored PS48 treatment
same,Akt Ser473 and mTOR Ser2448 phosphorylation,[4],did not over-activate Akt Ser473 or affect mTOR Ser2448 phosphorylation
same,"cell viability, comparison with PPAR agonist (FIG. 2B)","SH-SY5Y cells; PS48 10 μM, pioglitazone 5 μM",compared favorably
same,cell viability (MTT) of amyloid-bearing cells,"SH-SY5Y cells; pretreatment before doxycycline, PS48 10 μM or insulin 100 nM, harvested at 48 hrs",reverted cells to basal condition or better
